Measurements reported in paper PMC4474394 (OncoTargets and therapy, 2015).

Assay: In vivo biodistribution in NCI-H157-bearing BALB/c nude mice
Settings: 99mTc-labeled peptide, judged from weak accumulation in brain tissue

Blood–brain barrier penetration: poor
Sequence: TMPFLFCNVNDVCNFASRNDYSKKK [T7]
